Data as given in US10729738B2, “Hindered disulfide drug conjugates” (priority 2015, dated 2020).

Assay: In vitro disulfide cleavage and immolation by incubation with cysteine or glutathione (LC/MS)
Format: physicochemical
Conditions: for Percentage of all products: pH 7.0, 37° C.; for Immolation of thiol intermediate: incubation with cysteine or glutathione
Experimental: In a first phase of the experiment, disulfide cleavage and immolation by incubation with cysteine and glutathione—with the thiol concentrations mimic those in plasma and cancer cells—was investigated using unconjugated small molecule model systems with para-nitro-pyridyl disulfide-containing linker drug analogs 1, 2 and 11 below. In particular, cleavage and immolation was evaluated in vitro by incubation at […] with cysteine ([…] or 200 μM) or glutathione (GSH, 4 mM) in 100 mM Tris buffer pH 7.0 containing 5% methanol at 37° C. Aliquots were taken at specified time points and the samples were analyzed by LC/MS on Sciex TripleTOF 5600 on a Hypersil Gold C18 column (100×2.1, […], Thermo Scientific). The column was eluted by a gradient of buffer A (0.1% formic acid in 10 mM ammonium acetate) to buffer B (0.1% formic acid in 10 mM ammonium acetate in 90% acetonitrile), 5% B 0-0.5 min, 5-25% B 0.5-8 min, 25-75% B 8-13 min, and 75-95% B 13-13.5 min, 95% B 13.5-14.5 min, 95-5% B 14.5-15 min at 0.4 mL/min. Under these conditions, para-nitropyridyl thiol was eluted at 5.3 min. All products (compounds 1, 2, 11, 3a, 3b, 4a, 4b, 12a, 12 b, 6, 7, 13 and 8) were separated and characterized by LC/MS/MS in a positive ESI ion mode. All analytes had the protonated molecular MH^+ as the major species with little source fragmentation. Full scan accurate mass peak areas were used to estimate relative abundance of each component and the disappearance of 1, 2, and 11 estimated relative full scan peak areas was consistent with that estimated based on the relative abundance compared to time 0 by MS or UV. The results are reported in Table 15 below and the analytical results are presented in Table 16 below where “Cmpd” refers to compound, “RT” refers to retention time in minutes, and “Calc. Mass” refers to calculated mass. The relative abundance of disulfide cleavage and immolation products over time were evaluated and are disclosed in FIGS. 12A to 12C, 13A to 13C, 14A to 14C and 15A to 15C where the products were monitored by LC/MS from incubations of linker drugs 1, 2, and 11 at pH 7.0 and 37° C. in the presence of: 0.2 mM cysteine (FIGS. 12A, 12B and 12C); 0.03 mM cysteine (FIGS. 13A, 13B and 13C); 4 mM glutathione (FIGS. 14A, 14B and 14C); and 0.03 mM glutathione (FIGS. 15A, 15B and 15C). In FIGS. 12A to 12C, 13A to 13C, 14A to 14C and 15A to 15C, compound reference numbers 1, 2, 3a, 3b, 4a, 4b, 6, 7, 8, 11, 12a, 12b and 13 correspond to the structures below.

C=C1C[C@H]2C=Nc3cc(OCCCCCOc4cc5c(cc4OC)C(=O)N4CC(=C)C[C@H]4C(O)N5C(=O)OCC4(SSC[C@H](NC(=O)CC[C@H](N)C(=O)O)C(=O)NCC(=O)O)CCC4)c(OC)cc3C(=O)N2C1 (some centres unmarked) [Compound 12b]
Percentage of all products (4 mM GSH, 1 h): 1.6%
Percentage of all products (4 mM GSH, 4 h): 0.2%
Percentage of all products (4 mM GSH, 24 h): 0%

C=C1C[C@H]2C=Nc3cc(OCCCCCOc4cc5c(cc4OC)C(=O)N4CC(=C)C[C@H]4C(O)N5C(=O)OCC4(SSc5ccc([N+](=O)[O-])cn5)CCC4)c(OC)cc3C(=O)N2C1 (some centres unmarked) [Compound 11]
Percentage of all products (30 μM cysteine, 1 h): 21.2%
Percentage of all products (30 μM cysteine, 4 h): 15.5%
Percentage of all products (30 μM cysteine, 24 h): 4.8%
Percentage of all products (200 μM cysteine, 1 h): 6.5%
Percentage of all products (200 μM cysteine, 4 h): 3.6%
Percentage of all products (200 μM cysteine, 24 h): 1.5%
Percentage of all products (4 mM GSH, 1 h): 9.1%
Percentage of all products (4 mM GSH, 4 h): 4.5%
Percentage of all products (4 mM GSH, 24 h): 0.7%

C=C1CC2C=Nc3cc(OCCCCCOc4cc5c(cc4OC)C(=O)N4CC(=C)CC4C(O)N5C(=O)OCC(C)SSc4ccc([N+](=O)[O-])cn4)c(OC)cc3C(=O)N2C1 (centres unmarked) [Compound 1]
Percentage of all products (30 μM cysteine, 1 h): 10.6%
Percentage of all products (30 μM cysteine, 4 h): 7.9%
Percentage of all products (30 μM cysteine, 24 h): 4.5%
Percentage of all products (200 μM cysteine, 1 h): 2.8%
Percentage of all products (200 μM cysteine, 4 h): 1.0%
Percentage of all products (200 μM cysteine, 24 h): 0%
Percentage of all products (4 mM GSH, 1 h): 9.1%
Percentage of all products (4 mM GSH, 4 h): 0.9%
Percentage of all products (4 mM GSH, 24 h): 0.1%

C=C1CC2C=Nc3cc(OCCCCCOc4cc5c(cc4OC)C(=O)N4CC(=C)CC4C=N5)c(OC)cc3C(=O)N2C1 (centres unmarked) [Compound 8, reference compound]
Percentage of all products (30 μM cysteine, 1 h, listed as 1 to 8, compound 1 to 8 conversion): 6.8%
Percentage of all products (30 μM cysteine, 1 h, listed as 2 to 8, compound 2 to 8 conversion): 0.1%
Percentage of all products (30 μM cysteine, 1 h, listed as 11 to 8, compound 11 to 8 conversion): 3.6%
Percentage of all products (30 μM cysteine, 4 h, listed as 1 to 8, compound 1 to 8 conversion): 10.5%
Percentage of all products (30 μM cysteine, 4 h, listed as 2 to 8, compound 2 to 8 conversion): 0.1%
Percentage of all products (30 μM cysteine, 4 h, listed as 11 to 8, compound 11 to 8 conversion): 8.7%
Percentage of all products (30 μM cysteine, 24 h, listed as 1 to 8, compound 1 to 8 conversion): 20.5%
Percentage of all products (30 μM cysteine, 24 h, listed as 2 to 8, compound 2 to 8 conversion): 0.5%
Percentage of all products (30 μM cysteine, 24 h, listed as 11 to 8, compound 11 to 8 conversion): 27.6%
Percentage of all products (200 μM cysteine, 1 h, listed as 1 to 8, compound 1 to 8 conversion): 83.7%
Percentage of all products (200 μM cysteine, 1 h, listed as 2 to 8, compound 2 to 8 conversion): 0.1%
Percentage of all products (200 μM cysteine, 1 h, listed as 11 to 8, compound 11 to 8 conversion): 68.8%
Percentage of all products (200 μM cysteine, 4 h, listed as 1 to 8, compound 1 to 8 conversion): 94.4%
Percentage of all products (200 μM cysteine, 4 h, listed as 2 to 8, compound 2 to 8 conversion): 0.3%
Percentage of all products (200 μM cysteine, 4 h, listed as 11 to 8, compound 11 to 8 conversion): 83.2%
Percentage of all products (200 μM cysteine, 24 h, listed as 1 to 8, compound 1 to 8 conversion): 99.9%
Percentage of all products (200 μM cysteine, 24 h, listed as 2 to 8, compound 2 to 8 conversion): 2.5%
Percentage of all products (200 μM cysteine, 24 h, listed as 11 to 8, compound 11 to 8 conversion): 97.7%
Percentage of all products (4 mM GSH, 1 h, listed as 1 to 8, compound 1 to 8 conversion): 88.0%
Percentage of all products (4 mM GSH, 1 h, listed as 2 to 8, compound 2 to 8 conversion): 0.2%
Percentage of all products (4 mM GSH, 1 h, listed as 11 to 8, compound 11 to 8 conversion): 86.7%
Percentage of all products (4 mM GSH, 4 h, listed as 1 to 8, compound 1 to 8 conversion): 98.5%
Percentage of all products (4 mM GSH, 4 h, listed as 2 to 8, compound 2 to 8 conversion): 0.4%
Percentage of all products (4 mM GSH, 4 h, listed as 11 to 8, compound 11 to 8 conversion): 94.9%
Percentage of all products (4 mM GSH, 24 h, listed as 1 to 8, compound 1 to 8 conversion): 99.9%
Percentage of all products (4 mM GSH, 24 h, listed as 2 to 8, compound 2 to 8 conversion): 2.3%
Percentage of all products (4 mM GSH, 24 h, listed as 11 to 8, compound 11 to 8 conversion): 99.3%

C=C1C[C@H]2C=Nc3cc(OCCCCCOc4cc5c(cc4OC)C(=O)N4CC(=C)C[C@H]4C(O)N5C(=O)OCC4(SSc5ccc([N+](=O)[O-])cn5)CC4)c(OC)cc3C(=O)N2C1 (some centres unmarked) [Compound 2]
Percentage of all products (30 μM cysteine, 1 h): 21.1%
Percentage of all products (30 μM cysteine, 4 h): 19.1%
Percentage of all products (30 μM cysteine, 24 h): 12.0%
Percentage of all products (200 μM cysteine, 1 h): 16.1%
Percentage of all products (200 μM cysteine, 4 h): 10.8%
Percentage of all products (200 μM cysteine, 24 h): 7.0%
Percentage of all products (4 mM GSH, 1 h): 17.9%
Percentage of all products (4 mM GSH, 4 h): 9.0%
Percentage of all products (4 mM GSH, 24 h): 4.3%

C=C1CC2C=Nc3cc(OCCCCCOc4cc5c(cc4OC)C(=O)N4CC(=C)CC4C(O)N5C(=O)OCC(C)S)c(OC)cc3C(=O)N2C1 (centres unmarked) [Compound 6]
Percentage of all products (30 μM cysteine, 1 h): 2.5%
Percentage of all products (30 μM cysteine, 4 h): 1.7%
Percentage of all products (30 μM cysteine, 24 h): 0.5%
Percentage of all products (200 μM cysteine, 1 h): 7.8%
Percentage of all products (200 μM cysteine, 4 h): 2.8%
Percentage of all products (200 μM cysteine, 24 h): 0.1%
Percentage of all products (4 mM GSH, 1 h): 2.6%
Percentage of all products (4 mM GSH, 4 h): 0%
Percentage of all products (4 mM GSH, 24 h): 0%
Immolation of thiol intermediate: immolated quickly

C=C1C[C@H]2C=Nc3cc(OCCCCCOc4cc5c(cc4OC)C(=O)N4CC(=C)C[C@H]4C(O)N5C(=O)OCC4(S)CCC4)c(OC)cc3C(=O)N2C1 (some centres unmarked) [Compound 13]
Percentage of all products (30 μM cysteine, 1 h): 1.3%
Percentage of all products (30 μM cysteine, 4 h): 1.1%
Percentage of all products (30 μM cysteine, 24 h): 0.1%
Percentage of all products (200 μM cysteine, 1 h): 3.2%
Percentage of all products (200 μM cysteine, 4 h): 1.6%
Percentage of all products (200 μM cysteine, 24 h): 0%
Percentage of all products (4 mM GSH, 1 h): 2.3%
Percentage of all products (4 mM GSH, 4 h): 0%
Percentage of all products (4 mM GSH, 24 h): 0%
Immolation of thiol intermediate: efficient immolation

C=C1C[C@H]2C=Nc3cc(OCCCCCOc4cc5c(cc4OC)C(=O)N4CC(=C)C[C@H]4C(O)N5C(=O)OCC4(SSC[C@H](NC(=O)CC[C@H](N)C(=O)O)C(=O)NCC(=O)O)CC4)c(OC)cc3C(=O)N2C1 (some centres unmarked) [Compound 4b]
Percentage of all products (4 mM GSH, 1 h): 1.1%
Percentage of all products (4 mM GSH, 4 h): 0.4%
Percentage of all products (4 mM GSH, 24 h): 1.0%

C=C1C[C@H]2C=Nc3cc(OCCCCCOc4cc5c(cc4OC)C(=O)N4CC(=C)C[C@H]4C(O)N5C(=O)OCC4(SSC[C@H](N)C(=O)O)CC4)c(OC)cc3C(=O)N2C1 (some centres unmarked) [Compound 4a]
Percentage of all products (30 μM cysteine, 1 h): 73.7%
Percentage of all products (30 μM cysteine, 4 h): 71.1%
Percentage of all products (30 μM cysteine, 24 h): 75.9%
Percentage of all products (200 μM cysteine, 1 h): 39.1%
Percentage of all products (200 μM cysteine, 4 h): 15.2%
Percentage of all products (200 μM cysteine, 24 h): 3.2%

C=C1C[C@H]2C=Nc3cc(OCCCCCOc4cc5c(cc4OC)C(=O)N4CC(=C)C[C@H]4C(O)N5C(=O)OCC4(SSC[C@H](N)C(=O)O)CCC4)c(OC)cc3C(=O)N2C1 (some centres unmarked) [Compound 12a]
Percentage of all products (30 μM cysteine, 1 h): 73.5%
Percentage of all products (30 μM cysteine, 4 h): 74.8%
Percentage of all products (30 μM cysteine, 24 h): 66.7%
Percentage of all products (200 μM cysteine, 1 h): 21.5%
Percentage of all products (200 μM cysteine, 4 h): 11.6%
Percentage of all products (200 μM cysteine, 24 h): 0.8%

C=C1CC2C=Nc3cc(OCCCCCOc4cc5c(cc4OC)C(=O)N4CC(=C)CC4C(O)N5C(=O)OCC(C)SSCC(NC(=O)CCC(N)C(=O)O)C(=O)NCC(=O)O)c(OC)cc3C(=O)N2C1 (centres unmarked) [Compound 3b]
Percentage of all products (4 mM GSH, 1 h): 0.3%
Percentage of all products (4 mM GSH, 4 h): 0%
Percentage of all products (4 mM GSH, 24 h): 0%
